Patent US5288716A, “Use of pyridoxine derivatives in the prevention and treatment of hyperlipidaemia and atherosclerosis” (priority 1987, dated 1994)
Structures can show the parent of a compound that is named as a salt.

Key:
[1] = test system: aortae of the rabbits from the heart to the bifurcation; assay: Aorta changes in hyperlipaemic rabbits after 10 weeks of treatment (120 mg/kg), relative to non-treated rabbits; format: in vivo
Protocol: The values are mean values of 18 rabbits and measured relative to a basis of non-treated rabbits.
The control group received a diet comprising 2% of cholesterol. In the group under treatment each rabbit received additionally 120 mg pyridoxamine.2 HCl/kg body weight. At the end of the test the aortae of the rabbits from the heart to the bifurcation were prepared and examined: […]

[2] = test system: aorta of rabbits; assay: Effect of vitamin B6 and the equimolar dose of a derivative thereof on the calcium and lipid content of the aorta of rabbits after 10 weeks; format: in vivo; settings: control diet 2% cholesterol, pyridoxamine 2HCl 78 mg/kg, pyridoxine HCl 62 mg/kg
Source text: 2. Effect of vitamin B6 and the equimolar dose of a derivative thereof on the calcium and lipid content of the aorta of rabbits after 10 weeks of treatment as compared to a control group fed with a diet containing 2% cholesterol

[3] = Tolerance of vitamin B6 and two derivatives in mice after a single oral dose of 5 g; settings: mouse, in vivo, 5000 mg, single oral dose of 5 g, read-out: % death
Source text: 3. Tolerance of vitamin B6 and two derivatives in mice after a single oral dose of 5 g

[4] = test system: serum lipids; assay: Effect of vitamin B6 and a derivative thereof on serum lipids in rats after 12 weeks of treatment; format: in vivo; settings: diet 2.5% cholesterol plus 0.25% cholic acid, 79 mg pyridoxine/kg or equimolar dose
Protocol: 1. Effect of vitamin B6 and a derivative thereof on serum lipids in rats after 12 weeks of treatment
Group A=rats fed with normal diet without cholesterol
Group B=rats fed with a diet containing 2.5% cholesterol plus 0.25% cholic acid
Group C=as group (B) plus 79 mg pyridoxine/kg bodyweight
Group D=as group (B) plus an equimolar (to pyridoxine) dose of a pyridoxamine derivative
20 animals per group; means ±SD; difference to group B in %

[5] = test system: lipid metabolism; assay: Pyridoxine in rats (own experiments, with a positive control); format: in vivo; settings: 79 mg/kg body weight
Source text: This was explicitly queried in DE 24 61 742 C2 (column 3, lines 35 ff). […] Pyridoxine was used separately in earlier experiments on animals in conjunction with lipid metabolism (see Frolova, J. A.: Vitamin B6 and lipid metabolism; Vopr. med. Khim. 89, 18. 339-346 (1972)). Its effect, however, is weak.

[6] = test system: lipid metabolism; settings: earlier experiments on animals; cited from earlier work
[7] = 2% cholesterol diet, 120 mg/kg body weight, 10 weeks, mean of 18, relative to non-treated

| Structure (SMILES) | calcium in aorta, % difference to control [2] | cholesterol in aorta, % difference to control [2] | dry weight of aorta, % difference to control [2] | total lipids in aorta, % difference to control [2] | triglycerides in aorta, % difference to control [2] | mortality [3] | further results |
| --- | --- | --- | --- | --- | --- | --- | --- |
| Cc1ncc(CO)c(CN)c1O [pyridoxamine.2 HCl] | -24% | -21% | -7% | -15% | -15% | – | decrease of calcium in aorta [1, 7]: 31%; decrease of cholesterol in aorta [1, 7]: 27%; decrease of lipids (total) in aorta [1, 7]: 18%; decrease of triglycerides in aorta [1, 7]: 17%; decrease of changes characteristic for atherosclerosis (thickening of the walls, lipid- and calcium uptake) ([1]; after 10 weeks): substantial decrease |
| Cc1ncc(CO)c(CN)c1O [Pyridoxamine] | – | – | – | – | – | 0% | – |
| Cc1ncc(CO)c(CO)c1O [pyridoxine · HCl] | +21% | -2% | -1% | -3% | +6% | – | – |
| Cc1ncc(CO)c(C=O)c1O [Pyridoxal] | – | – | – | – | – | 100% | – |
| Cc1ncc(CO)c(CO)c1O [Pyridoxine] | – | – | – | – | – | 30% | LDL + VLDL-Cholesterol, difference to group B [4]: -10%; Total serum cholesterol, difference to group B [4]: -4%; LDL + VLDL-Cholesterol ([4]; mean (SD in next line)): 150; Total serum cholesterol ([4]; mean (SD in next line)): 204; effect in rats [5]: ineffective; effect on lipid metabolism [6]: weak |
